{
  "source": "EPA's ToxValDB 9.5 (doi:10.2903/j.efsa.2009.1390)",
  "key": {"Typhlodromus pyri": {"test_system": "Typhlodromus pyri", "test": "LR50; higher = less toxic", "conditions": "not reported; mortality"}, "Bibionidae": {"test_system": "Bibionidae", "conditions": "chronic/long-term; duration: 28 days"}, "Oryctolagus sp.": {"test_system": "Oryctolagus sp.", "conditions": "reproduction developmental; body weight"}, "Apis mellifera": {"test_system": "Apis mellifera", "conditions": "acute, mortality"}, "Rattus norvegicus": {"test_system": "Rattus norvegicus", "conditions": "acute; oral; F; mortality"}, "Daphnia magna": {"test_system": "Daphnia magna", "conditions": "chronic/long-term; duration: 21 days; reproduction"}, "Canidae": {"test_system": "Canidae", "conditions": "chronic; duration: 1 years; oral; Dog Other; organ weight"}, "Anas platyrhynchos": {"test_system": "Anas platyrhynchos", "conditions": "acute; oral; unspecified; mortality"}},
  "data": [
    {"smiles": "Nc1c(Cl)c(Cl)nc(C(=O)O)c1Cl", "note": "[Picloram]", "values": [
      {"measurement": "LR50", "setting": "Typhlodromus pyri", "result": "> 23.4", "unit": "g/ha"},
      {"measurement": "LC50", "setting": "Tagia sp.; acute, duration: 14 days, mortality", "result": "> 4480", "unit": "mg/kg"},
      {"measurement": "NOEC", "setting": "Tagia sp.; chronic/long-term, duration: 8 weeks", "result": 0.167, "unit": "mg/kg"},
      {"measurement": "NOEC", "setting": "Bibionidae", "result": 100, "unit": "mg/L"},
      {"measurement": "LC50", "setting": "Oncorhynchus mykiss; acute, duration: 96 hours, mortality", "result": 8.8, "unit": "µg/mL"},
      {"measurement": "NOEC", "setting": "Oncorhynchus mykiss; chronic/long-term, duration: 70 days, development", "result": 0.55, "unit": "mg/L"},
      {"measurement": "NOAEL", "setting": "Oryctolagus sp.", "result": 30, "unit": "mg/kg-day"},
      {"measurement": "LD50", "setting": "Apis mellifera; dermal", "result": "> 100", "unit": "µg/piece"},
      {"measurement": "LD50", "setting": "Apis mellifera; oral, unspecified", "result": "> 74", "unit": "µg/piece"},
      {"measurement": "LD50", "setting": "Rattus norvegicus", "result": 4010, "unit": "mg/kg-day"},
      {"measurement": "NOEC", "setting": "Daphnia magna", "result": 6.79, "unit": "mg/L"},
      {"measurement": "NOAEL", "setting": "Canidae", "result": 35, "unit": "mg/kg-day"},
      {"measurement": "NOEC", "setting": "Colinus virginianus; reproduction developmental", "result": 65, "unit": "mg/kg-day"}
    ]},
    {"smiles": "Nc1c(Cl)c(Cl)nc(C(=O)[O-])c1Cl.[K+]", "note": "[Picloram potassium salt]", "values": [
      {"measurement": "LD50", "setting": "Anas platyrhynchos", "result": "> 2250", "unit": "mg/kg-day"},
      {"measurement": "LC50", "setting": "Colinus virginianus; acute, oral, diet, mortality", "result": "> 2200", "unit": "mg/kg-day"}
    ]}
  ]
}
